# Measurements: patent US9938322B2, “β-hairpin peptidomimetics” (priority 2013, dated 2018)
# *1 amine or outer side, *2 acyl side, *3 side chain or, on linkers, in order; H or OH if unused. Where a SMILES comes first, the peptide text is derived from it. Side-chain parts run from the residue outwards. [ ]: non-standard residue; d: D form. The star is where a group is joined. NH(4-Cl-phenyl) = Clc1ccc(N*)cc1; Cha = N[C@@H](CC1CCCCC1)C(=O)O; Tle = CC(C)(C)[C@H](N)C(=O)O; NH(2-ClPh) = Clc1ccccc1N*; dDab = NCC[C@@H](N)C(=O)O; Orn = NCCC[C@H](N)C(=O)O; Dab = NCC[C@H](N)C(=O)O; Dap = NC[C@H](N)C(=O)O; CO = O=C([*:1])[*:2]
# How the values were obtained:
# Type in all cases: cell-based
# [1] = tested on: human red blood cells (hRBC); assay: Hemolysis of human red blood cells
# In short: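 Washed fresh human erythrocytes (20% v/v, about 0.9×10^9 cells/ml final) incubated with peptide at 100 μg/ml for 1 h at 37° C with shaking. Supernatant OD540 read; hemolysis expressed relative to 2.5% Triton X-100 (100%) and PBS with 0.001% acetic acid (0%).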
# [2] = tested on: Acinetobacter baumannii DSM 30008; conditions: Mueller-Hinton II broth + 0.02% BSA, 18-20 hours at 35° C.
# Protocol: (§1) Lyophilized peptides were weighed on a Microbalance (Mettler MT5) and dissolved in sterile water to a final concentration of 1 mg/ml. Stock solutions were kept at +4° C., light protected.
# (§2) The selective antimicrobial activities of the peptides were determined in 96-well plates (Greiner, polystyrene) by the standard NCCLS broth microdilution method (National Committee for Clinical Laboratory Standards 1993. Methods for dilution antimicrobial susceptibility tests for bacteria that grow aerobically, 3rd ed. Approved standard M7-A6; National Committee for Clinical laboratory standards, Wayne, Pa.) with slight modifications. Inocula of the microorganisms were diluted into Mueller-Hinton II (MH, cation adjusted) broth+0.02% BSA and compared with a 0.5 McFarland standard to give appr. 10^6 colony forming units (CFU)/ml. Aliquots (50 μl) of inoculate were added to 50 μl of MH broth+0.02% BSA containing the peptide in serial two-fold dilutions. The following microorganisms were used to determine antibiotic selectivity of the peptides: Escherichia coli ATCC 25922, Klebsiella pneumoniae ATCC 13883 and Acinetobacter baumannii DSM 30008.
# [3] = tested on: Klebsiella pneumoniae ATCC 13883; conditions: Mueller-Hinton II broth + 0.02% BSA, 18-20 hours at 35° C.
# Protocol: as §1, §2
# [4] = tested on: Escherichia coli ATCC 25922; conditions: Mueller-Hinton II broth + 0.02% BSA, 18-20 hours at 35° C.
# Protocol: as §1, §2
# [5] = 100 μg/ml, 20% hRBC, 1 h at 37° C.
SMILES,"Hemolysis at 100 μg/ml [1, 5]",Acinetobacter baumannii DSM 30008 MIC [2],Klebsiella pneumoniae ATCC 13883 MIC [3],Escherichia coli ATCC 25922 MIC [4],"Hemolysis at 100 μg/ml ([1]; red cells of human, 1 h, 100)"
CC(C)C[C@@H]1NC(=O)[C@@H]2CCCN2C(=O)[C@H]2CCCN2C(=O)[C@H](CO)NC(=O)[C@H](C)NC(=O)[C@H](C(C)(C)C)NC(=O)[C@H](CCN)NC(=O)[C@H](Cc2c[nH]c3ccccc23)NC(=O)[C@H](CCN)NC(=O)[C@@H](CCN)NC(=O)[C@H](CCCN)NC(=O)[C@H](CCN)NC(=O)[C@H](CC2CCCCC2)NC(=O)[C@H](CNC(=O)Nc2ccccc2Cl)NC1=O [compound 38] (cyclo(L[Dap]([CO-NH(2-ClPh)])[Cha][Dab][Orn][dDab][Dab]W[Dab][Tle]AS[dP]P)),4%,1 µg/mL,1 µg/mL,1 µg/mL,–
C[C@@H]1NC(=O)[C@H](CNC(=O)Nc2ccccc2Cl)NC(=O)[C@@H]2CCCN2C(=O)[C@H]2CCCN2C(=O)[C@H](CO)NC(=O)[C@H](C)NC(=O)[C@H](C(C)(C)C)NC(=O)[C@H](CCN)NC(=O)[C@H](Cc2c[nH]c3ccccc23)NC(=O)[C@H](CCN)NC(=O)[C@@H](CCN)NC(=O)[C@H](CCCN)NC(=O)[C@H](CCN)NC(=O)[C@H](CC2CCCCC2)NC1=O [compound 52] (cyclo([Dap]([CO-NH(2-ClPh)])A[Cha][Dab][Orn][dDab][Dab]W[Dab][Tle]AS[dP]P)),0%,2 µg/mL,1 µg/mL,1 µg/mL,–
C[C@@H]1NC(=O)[C@H](CNC(=O)Nc2ccc(Cl)cc2)NC(=O)[C@@H]2CCCN2C(=O)[C@H]2CCCN2C(=O)[C@H](CO)NC(=O)[C@H](C)NC(=O)[C@H](C(C)(C)C)NC(=O)[C@H](CCN)NC(=O)[C@H](Cc2c[nH]c3ccccc23)NC(=O)[C@H](CCN)NC(=O)[C@@H](CCN)NC(=O)[C@H](CCCN)NC(=O)[C@H](CCN)NC(=O)[C@H](CC2CCCCC2)NC1=O [compound 53] (cyclo([Dap]([CO-NH(4-Cl-phenyl)])A[Cha][Dab][Orn][dDab][Dab]W[Dab][Tle]AS[dP]P)),2%,1 µg/mL,1 µg/mL,1 µg/mL,–
CC(C)C[C@@H]1NC(=O)[C@@H]2CCCN2C(=O)[C@H]2CCCN2C(=O)[C@H](CO)NC(=O)[C@H](CC(=O)O)NC(=O)[C@H](C(C)(C)C)NC(=O)[C@H](CCN)NC(=O)[C@H](Cc2c[nH]c3ccccc23)NC(=O)[C@H](CCN)NC(=O)[C@@H](CCN)NC(=O)[C@H](CCCN)NC(=O)[C@H](CCN)NC(=O)[C@H](Cc2ccc(O)cc2)NC(=O)[C@H](CCN)NC1=O [compound 159] (cyclo(L[Dab]Y[Dab][Orn][dDab][Dab]W[Dab][Tle]DS[dP]P)),–,–,–,–,1%
C[C@@H]1NC(=O)[C@H](C(C)(C)C)NC(=O)[C@H](CCN)NC(=O)[C@H](Cc2c[nH]c3ccccc23)NC(=O)[C@H](CCN)NC(=O)[C@@H](CCN)NC(=O)[C@H](CCCN)NC(=O)[C@H](CCN)NC(=O)[C@H](Cc2ccc(O)cc2)NC(=O)[C@H](CN)NC(=O)[C@H](Cc2ccccc2)NC(=O)[C@@H]2CCCN2C(=O)[C@H]2CCCN2C(=O)[C@H](CO)NC1=O [compound 160] (cyclo(F[Dap]Y[Dab][Orn][dDab][Dab]W[Dab][Tle]AS[dP]P)),–,–,–,–,1%
CC(C)C[C@@H]1NC(=O)[C@H](C)NC(=O)[C@H](C(C)(C)C)NC(=O)[C@H](CCN)NC(=O)[C@H](Cc2c[nH]c3ccccc23)NC(=O)[C@H](CCN)NC(=O)[C@@H](CCN)NC(=O)[C@H](CCCN)NC(=O)[C@H](CCN)NC(=O)[C@H](Cc2ccc(O)cc2)NC(=O)[C@H](CO)NC(=O)[C@H]([C@@H](C)O)NC(=O)[C@@H]2CCCN2C(=O)[C@H]2CCCN2C1=O [compound 161] (cyclo(TSY[Dab][Orn][dDab][Dab]W[Dab][Tle]AL[dP]P)),–,–,–,–,2%
